Source: patent publication US7279175B2, “Stent coated with a sustained-release drug delivery and method for use thereof” (Psivida Inc., priority 2001, dated 2007)

Key:
[1] = In vitro release from stents coated with 1:1 mixture of TA and 5FU without chemical linkage; type: physicochemical; details: mixture coating, 0.1M phosphate buffer pH 7.4, 37° C.
Experimental: Stents were coated with a mixture of TA and 5FU in a mole-ratio of 1 to 1 without chemical linkage. The release rate was determined in vitro by placing the coated stents in 0.1M phosphate buffer (pH 7.4) at 37° C. Samples of the buffer solution were periodically removed for analysis by HPLC, and the buffer was replaced to avoid any saturation effects.
Because of the hydrophilic nature of 5FU, this compound was released from the mixture coating much faster than from the codrug coating. Within 4 weeks, more than 95% of total 5FU was released. TA release from the drug mixture coating was much slower, with about 20% TA released over the first 6 weeks.

[2] = Release test from PVA-coated glass plates into phosphate buffer (HPLC); type: physicochemical; details: 0.1 M phosphate buffer pH 7.4, 37° C., intact plus constituents
[3] = Release test from silicone-coated glass plates into phosphate buffer (HPLC); details: silicone coating, up to day 6; detected plus hydrolyzed
Excerpt: Samples were taken daily, and the entire release media was replaced with fresh media at each sampling time. […] Again, the data represent both intact and constituents of the inventive compound.

SMILES: O=c1[nH]cc(F)c(=O)[nH]1 [5FU, 5-fluorouracil]
- total 5FU released ([1]; within 4 weeks): more than 95%

SMILES: CC1(C)O[C@@H]2C[C@H]3[C@@H]4CCC5=CC(=O)C=C[C@]5(C)[C@@]4(F)[C@@H](O)C[C@]3(C)[C@]2(C(=O)CO)O1 [TA, triamcinolone acetonide]
- TA released ([1]; over the first 6 weeks): about 20%

SMILES: COc1ccc2cc(C(C)C(=O)OCn3cc(F)c(=O)[nH]c3=O)ccc2c1 (stereo not shown) [TC-112]
- release rate (slope of total cumulative release curve) [2]: 10 µg/day
- total TC-112 released [3]: 122.4 mg
